According to patent US10300070B2, “Metabolically-activated drug conjugates to overcome resistance in cancer therapy” (The Brigham and Women's Hospital, Inc., priority 2014, dated 2019):

Columns and labels:
Assay type in all cases: in vivo, mice
[1] = system: tumor tissue; assay: Whole tissue glucose levels from tumor homogenate after intratumoral injection; settings: docetaxel intratumoral injection, within 12 hours post-administration
Procedure: (§1) 1 million 4T-1 mouse mammary carcinoma cells suspended in 100 μL PBS were injected per left flank of 5-6 week old Balb/C (heterotopic) or mammary fat pad (orthotopic). Docetaxel (DTX) was dissolved in pure Ethanol at a concentration of 50 mg/ml mixed 1:1 with Polysorbate 80 (Tween 80) and brought to a final working concentration with PBS. Tumor volumes were assessed by the following formula: (Width×Width×length)/2 and values were utilized to calculate tumor specific growth rate (SGR) by the algorhythm (ln [V2/V1]/[t2−t1)] where V=volume and t=time in days^64. For in vivo analysis of 2-NBDG uptake, mice were treated as indicated (i.e. Docetaxel intratumoral or intravenously) and monitored until tumors reached ˜300 mm^3. Subsequently, mice were administered a 10 mg/kg i.v. injection of 2-NBDG 2 hours prior to sacrificing and harvesting tumors for confocal microscopic analysis by frozen section (described below). […] Glucose quantitation (mg/dL) was measured using the onetouch lifescan glucose monitor (Life Scan, Inc. Militipas, Calif.) by calculating mg of glucose per volume of tissue homogenate (in PBS) and normalized as a ratio of mg/dL of glucose to mg of tissue homogenized. Typically, >250 mg of tissue was homogenized in 50 μL of PBS to achieve a readable output.

[2] = system: residual tumor tissue; assay: Total intratumoral GSH in residual tumor of syngeneic mammary carcinoma; settings: DTX 10 mg/kg i.v., vs vehicle control cohorts
Procedure: G) Total intratumoral GSH obtained from residual tumor tissue homogenate of a syngeneic mammary carcinoma treated with vehicle or DTX (10 mg/kg i.v.). N=4 groups, ***p<0.001.
In vitro detection of glucose uptake was performed using 2-(N-7-Nitrobenz-2-oxa-1,3-diazol-4-yl)Amino)-2-Deoxyglucose (2-NBDG) (Invitrogen, Carlsbad Calif.), dissolved in DMSO to 50 mM. Cells were pre-treated with kinase inhibitors or vehicle for 3 hours in glucose- and phenol red-free media before addition of 50 μM 2-NBDG and subsequently read by FACS ex/em 488/535 nm. ROS was determined by pre-loading cells with CM-DCFDA (1 μM), washed 2 times with PBS and subsequently treated with H2O2 or vehicle; when kinase inhibitors were included in treatment, cells were first incubated with inhibitor for 3 hours prior to CM-DCFDA loading. Fluorescence was then determined by FACS ex/em 488/535 nm. For the following assays, cells were trypsinized and counted by Nexcelom cell counter (Lawrence, Mass.) prior to being subjected to analysis in order to achieve a quantitative value per cell: Reduced glutathione was determined using a colorimetric glutathione recycling system by DTNB following manufacturer protocol (Biovision, Milpitas Calif.). […] Protein synthesis was measured by two means 1. […] Fluorescence was detected by FACS as described below. […] GFP protein translation was determined by fluorescent microscopy. […]

[3] = system: CD44 and GLUT1; assay: Confocal microscopy of CD44 and GLUT-1 in residual tumors, orthotopic syngeneic mammary carcinoma model (4T-1); settings: 72 hours after docetaxel at MTD (10 mg/kg i.v.) vs vehicle
Procedure: as §1, with “output. […]” for “output.”

CC(=O)O[C@@]12CO[C@@H]1C[C@H](O)[C@@]1(C)C(=O)[C@H](O)C3=C(C)[C@@H](OC(=O)[C@H](O)[C@@H](NC(=O)OC(C)(C)C)c4ccccc4)C[C@@](O)([C@@H](OC(=O)c4ccccc4)[C@H]21)C3(C)C [docetaxel]
whole tissue glucose levels in tumor [1]: significantly higher | whole cell GSH in residual tumor [2]: significant global increase | expression of CD44 and GLUT1 in residual tumors [3]: enhanced expression of both CD44 and GLUT1
